How the values were obtained:
Type in all cases: toxicity, cell-based
Fibroblast = assay: Incucyte cell viability with human fibroblast; conditions: 24 h, 10 µM, compound concentration 10 uM
HEK-293T = assay: Incucyte cell viability with HEK293T; conditions: human, 24 h, 10 µM, compound concentration 10 uM
U2OS = assay: Incucyte cell viability with U2OS; conditions: human, 24 h, 10 µM, compound concentration 10 uM
Also: unitless GR value; below 1 slowed growth and below 0 cell loss.

Row | SMILES | Growth Rate (Fibroblast; replicate number 1) | Growth Rate (Fibroblast; replicate number 2) | Growth Rate (HEK-293T; replicate number 1) | Growth Rate (HEK-293T; replicate number 2) | Growth Rate (U2OS; replicate number 1) | Growth Rate (U2OS; replicate number 2)
1 | CN1CCc2c(n(Cc3ccc(C(=O)NO)cc3)c3ccccc23)C1 | 1 | 0.54 | 0.89 | 1 | 0.34 | 1
2 | O=C(NO)c1cccc(C(=O)NCCc2ccccc2)c1 | 1 | -0.07 | 0.83 | 0.99 | 0.02 | 0.85
3 | O=C(NCC1(c2nc(-c3ccccc3)cs2)CCOCC1)c1cccc(-c2noc(C(F)(F)F)n2)c1 | 1 | 0.44 | 0.36 | 0.64 | 1 | –
4 | CC(C)NCC(O)COC(Cn1c2ccccc2c2ccccc21)Cn1c2ccccc2c2ccccc21 (centres undefined) | 1 | 0.03 | 1 | – | -0.53 | 1
5 | CCC(CC)(NC(=O)C(C)C)C(=O)N[C@@H](CCCNC(=N)N)C(=O)NC1(C(=O)NC(c2ccc(F)cc2)c2ccc(F)cc2)CCCC1 | 0.56 | -0.56 | 0.95 | 1 | 1 | 0.97
6 | CCC(=O)N1CCOc2c(cc(-c3cc(OC)cc(OC)c3)cc2C(=O)N[C@H]2CCCN(C)C2)C1 | 0.84 | 0.98 | 0.39 | 0.7 | 0.42 | 1
7 | Nc1ccc(-c2cccs2)cc1NC(=O)c1ccc2nc(N3CCNCC3)ccc2c1 | 1 | – | 0.92 | 0.99 | 0.21 | 0.63
8 | COc1cc2c(NCC3CCN(C)CC3)cc(-c3ccc(C)o3)nc2cc1OCCCN1CCCC1 | 0.34 | -0.3 | -0.36 | -0.29 | -0.64 | -0.51
9 | CNC(=O)c1ccc(-c2cc3cccc(-c4nn(C5CCOCC5)c5c4CN(C(C)=O)CC5)c3cn2)cn1 | 1 | – | 0.61 | 0.57 | 0.12 | 0.95
10 | COc1nc(N)nc(Nc2cc(S(N)(=O)=O)ccc2N[C@@H](c2cccc3c2OC(F)(F)O3)c2ncccc2Cl)n1 | 1 | – | 0.97 | 1 | 1 | 0.89
11 | Cc1cc(C)cc(Oc2ccc(CNC(=O)[C@H](C)N)cc2C)c1.Cl | 1 | – | 0.84 | 0.89 | 0.69 | 1
12 | O=C(NO)C(c1ccc(-c2ncc(C(F)(F)F)cn2)cc1)c1ccccc1F (centres undefined) | 0.37 | -0.57 | -0.14 | 0.69 | 0.6 | 0.81
13 | C=CC(=O)Nc1cccc(-c2c[nH]cc2CN(C)CCN)c1 | 0.37 | 1 | 0.75 | 0.9 | 0.21 | 1
14 | OC1CN=C2c3ccn([C@@H]4O[C@H]([C@H](O)c5ccc(Cl)cc5)[C@@H](O)[C@H]4O)c3N=CN21 (some centres undefined) | 1 | -0.38 | 1 | – | 1 | 0.79
15 | CC(C)(C)c1ccc(CN(C(=O)CN(Cc2c(F)c(F)c(F)c(F)c2F)S(=O)(=O)c2ccc(F)cc2)c2ccc(C(=O)NO)cc2)cc1 | 0.66 | -0.2 | 0.62 | 0.53 | 0.17 | 1
16 | Cc1ccc(N2C(=O)/C(=C/C=C/c3ccco3)C(=O)NC2=S)cc1Cl | 0.45 | 1 | 0.94 | 1 | 1 | –
17 | CCCOC(=O)N1CCN(C(=O)c2ccc3c(Cl)cc(-c4ccc(C5(N)CC5)cc4)nc3c2)C[C@H]1C | 1 | -0.86 | 0.01 | 0.3 | 0.52 | 1
18 | CC(C)(CNC(=O)c1cccc(-c2noc(C(F)(F)F)n2)c1)c1coc(-c2ccccc2)n1 | 0.48 | 0.8 | 0.69 | 0.79 | 1 | –
19 | CCCCCCCCCCCCCCCCNNC(=O)c1cccs1 | 0.8 | 0.19 | 0.8 | 1 | 0.83 | 1
20 | CNC(=O)Cn1cc(-c2ccc3c(c2)[C@H](F)C[C@]32NC(=O)N(CC(=O)N(Cc3ccc(F)cc3)[C@@H](C)C(F)(F)F)C2=O)cn1 | 0.7 | -0.43 | -0.53 | 0.24 | -0.12 | 0.63
21 | Cc1ccc(F)c2cc(C(=O)N[C@@H]3CCC[C@H](N4CC[C@H](N(C)S(C)(=O)=O)C4)C3)[nH]c12 | 1 | – | 0.35 | 0.62 | 1 | 0.67
22 | Cc1cc(-c2ccc3nc(C4CCOCC4)n(CCOC(F)(F)F)c3c2)cn(C)c1=O | 0.36 | -0.06 | 0.62 | 0.67 | -0.23 | 0.68
23 | Cc1ncsc1-c1ccc([C@H](C)NC(=O)[C@@H]2C[C@@H](O)CN2C(=O)[C@@H](NC(=O)CNC(=O)c2ccc(F)c(-c3ccc(N4C[C@@H](C)N(C)[C@@H](C)C4)c(NC(=O)c4c[nH]c(=O)cc4C(F)(F)F)c3)c2)C(C)(C)C)cc1 | -0.11 | 0.89 | 0.6 | 0.78 | 1 | 0.89
24 | CN(C)CCCN(CC[C@H](N)C(=O)O)C[C@H]1O[C@@H](n2cnc3c(N)ncnc32)[C@H](O)[C@@H]1O.O=C(O)C(F)(F)F | 0.74 | 0.03 | 0.85 | 0.98 | 1 | –
25 | Cc1nc(F)ccc1-c1cc(Cn2ccn(C)c2=N)cc(C(=O)NCc2ccc(Cl)c(Cl)c2)c1.O=C(O)C(F)(F)F | 0.97 | 0.38 | 0.97 | 0.95 | 1 | –
26 | COc1cccc(OC)c1S(=O)(=O)Nc1noc2cc(Cn3cccn3)cc(OC)c12 | 0.79 | 1 | 0.71 | 0.55 | 0.39 | 1
27 | CCOCC1(COCC)CCC(c2n[nH]cc2CN(C)CCNC)CC1.Cl | 1 | 0.32 | 0.61 | 0.63 | 0.95 | –
28 | O=C1Cc2cc(C(=O)N[C@@H]3C[C@H]4CC[C@@H](C3)N4S(=O)(=O)CC3CCN(CCCC(F)(F)F)CC3)c(Cl)cc2N1 | 0.96 | 0.61 | 0.97 | 1 | 1 | –

From ChEMBL document CHEMBL5724709, “EUbOPEN Chemogenomics Library - IncuCyte” (2024)
